According to ChEMBL document CHEMBL4219268, “Synthesis and evaluation of N-(4-benzylphenyl)piperazines as VGF inducers” (Bioorg Med Chem Lett, 2018):

How the values were obtained:
CYP3A4 = CYP3A4 (Homo sapiens, UniProt P08684); experiment: Inhibition of CYP3A4 in human liver microsomes using testosterone as substrate assessed as residual activity at 10 uM preincubated for 30 mins followed by substrate addition measured after 10 mins in presence of NADPH by LC-MS/MS analysis; format: ADME; conditions: probe testosterone, read-out: Activity
Sequence of CYP3A4 (P08684 whole entry): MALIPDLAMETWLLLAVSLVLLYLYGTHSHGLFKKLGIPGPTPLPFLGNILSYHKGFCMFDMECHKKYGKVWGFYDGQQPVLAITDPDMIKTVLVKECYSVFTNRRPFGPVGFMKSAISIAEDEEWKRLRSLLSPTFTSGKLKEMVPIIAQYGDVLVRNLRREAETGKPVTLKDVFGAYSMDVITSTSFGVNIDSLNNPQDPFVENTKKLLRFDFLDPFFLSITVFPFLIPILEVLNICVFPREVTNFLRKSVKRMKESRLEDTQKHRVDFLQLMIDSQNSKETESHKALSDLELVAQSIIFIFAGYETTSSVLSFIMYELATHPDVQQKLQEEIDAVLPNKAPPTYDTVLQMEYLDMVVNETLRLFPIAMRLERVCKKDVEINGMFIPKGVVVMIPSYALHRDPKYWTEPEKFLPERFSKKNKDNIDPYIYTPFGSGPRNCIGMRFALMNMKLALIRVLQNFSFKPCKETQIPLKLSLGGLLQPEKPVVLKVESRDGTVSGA

[1] = Drug metabolism in human liver microsomes assessed as metabolic rate per mg protein at 1 uM measured at 3 to 30 mins by LC-MS/MS analysis; format: ADME, microsome
SH-SY5Y [2] = experiment: Cytoprotective activity against tunicamycin-induced ER stress in human SH-SY5Y cells assessed as cell viability at 3 uM preincubated for 1 hr followed by tunicamycin addition measured after 48 hrs by WST-8 assay (reference value: 45 +/- 6.6%); format: functional; conditions: read-out: Activity
SH-SY5Y [3] = experiment: Induction of VGF gene expression in human SH-SY5Y cells at 3 uM after 24 hrs by qRT-PCR analysis relative to control; format: functional
SH-SY5Y [4] = experiment: Induction of VGF gene expression in human SH-SY5Y cells at 3 uM after 24 hrs by qRT-PCR analysis relative to SUN N8075; format: functional
SH-SY5Y [5] = experiment: Cytoprotective activity against tunicamycin-induced ER stress in human SH-SY5Y cells assessed as cell viability at 3 uM preincubated for 1 hr followed by tunicamycin addition measured after 48 hrs by WST-8 assay relative to SUN N8075; format: functional; conditions: read-out: Activity

SMILES | activity at 10 min, 10 µM (CYP3A4) [%] | Drug metabolism [1] [pmol/min] | viability at 3 µM (SH-SY5Y [2]) [%] | fold change (FC) (SH-SY5Y [3]) | Activity (SH-SY5Y [4]) [%] | viability at 3 µM (SH-SY5Y [5]) [%]
CS(=O)(=O)O.CS(=O)(=O)O.Cc1cc(OCC(O)CN2CCN(c3ccc(Cc4ccc(F)cc4)cc3)CC2)c(C)c(C)c1N (stereo unspecified) | 57 | 153 | 82 | 5.1 |  | 
Cl.Cl.Cl.Fc1ccc(Cc2ccc(N3CCN(CC(F)(F)COc4ccc5ncccc5c4)CC3)cc2)cc1 | 93 | 34 |  |  | 68 | 67
Cl.Cl.Cl.Fc1ccc(Cc2ccc(N3CCN(CC(F)COc4ccncc4)CC3)cc2)cc1 (stereo unspecified) | 101 | < 10 |  |  | 13 | 13
Cc1cc(OCC(F)CN2CCN(c3ccc(Cc4ccc(F)cc4)cc3)CC2)cc(C)n1.Cl.Cl.Cl (stereo unspecified) | 67 | 41 |  |  | 79 | 82
Cl.Fc1ccc(Cc2ccc(N3CCN(CCCOc4ccc5ncccc5c4)CC3)cc2)cc1 | 94 | 47 |  |  | 52 | 75
Cc1cc(OC[C@@H](F)CN2CCN(c3ccc(Cc4ccc(F)cc4)cc3)CC2)cc(C)n1.Cl | 80 | 37 |  |  | 68 | 96
Cc1cc(OC[C@H](F)CN2CCN(c3ccc(Cc4ccc(F)cc4)cc3)CC2)cc(C)n1.Cl | 83 | 71 |  |  | 78 | 93
Cc1cc(OCC(F)CN2CCN(c3ccc(Cc4ccc(F)cc4)cc3)CC2)c(C)c(C)c1N.Cl.Cl.Cl (stereo unspecified) | 75 | 106 |  |  | 126 | 94
Cc1cc(C)c(C)c(OCC(F)CN2CCN(c3ccc(Cc4ccc(F)cc4)cc3)CC2)c1.Cl.Cl (stereo unspecified) | 107 | 25 |  |  | 75 | 60
Cc1cc(S(N)(=O)=O)c(C)c(C)c1OCC(F)CN1CCN(c2ccc(Cc3ccc(F)cc3)cc2)CC1 (stereo unspecified) | 92 | 32 |  |  | 172 | 106
Cl.Cl.Cl.Fc1ccc(Cc2ccc(N3CCN(CC(F)COc4ccc5ncccc5c4)CC3)cc2)cc1 (stereo unspecified) | 82 | 79 |  |  | 77 | 89

Second part, led by results:

activity at 10 min, 10 µM (CYP3A4) [%] | Drug metabolism [1] [pmol/min] | SMILES | viability at 3 µM (SH-SY5Y [2]) [%] | fold change (FC) (SH-SY5Y [3]) | Activity (SH-SY5Y [4]) [%] | viability at 3 µM (SH-SY5Y [5]) [%]
108 | 17 | Cc1cc(S(N)(=O)=O)ccc1OCC(F)CN1CCN(c2ccc(Cc3ccc(F)cc3)cc2)CC1 (stereo unspecified) |  |  | 114 | 105
76 | 34 | NC(=O)c1ccc(OCC(F)CN2CCN(c3ccc(Cc4ccc(F)cc4)cc3)CC2)cc1 (stereo unspecified) |  |  | 20 | 21
70 | 122 | OC(COc1ccc2ncccc2c1)CN1CCN(c2ccc(Cc3ccc(F)cc3)cc2)CC1 (stereo unspecified) |  |  | 36 | 64
88 | 27 | O=C1CCc2cc(OCC(O)CN3CCN(c4ccc(Cc5ccc(F)cc5)cc4)CC3)ccc2N1 (stereo unspecified) |  |  | 32 | 33
59 | 79 | OC(COc1ccc2[nH]ccc2c1)CN1CCN(c2ccc(Cc3ccc(F)cc3)cc2)CC1 (stereo unspecified) |  |  | 30 | 43
 | 28 | Cl.OC(COc1ccccc1)CN1CCN(c2ccc(Cc3ccc(F)cc3)cc2)CC1 (stereo unspecified) |  |  | 8 | 43
99 | 12 | NS(=O)(=O)c1ccc(OCC(F)CN2CCN(c3ccc(Cc4ccc(F)cc4)cc3)CC2)cc1 (stereo unspecified) |  |  | 71 | 88
